# Data published in patent EP2998289B1, “COMPOUNDS FOR TARGETING DRUG DELIVERY AND ENHANCING SIRNA ACTIVITY” (NITTO DENKO CORPORATION, priority 2011, dated 2012).
# What was measured:
# [1] = system: gp46; assay: pHSC in vitro assay: gp46/HSP47 mRNA knockdown by siRNA formulations, qRT-PCR; conditions: for in vitro (pHSC) EC50 or % KD: % KD @ 50 nM, 20:20 HEDC:S104 with 2% conjugate; for in vitro (pHSC) % KD: @ 50 nM, label = cationic lipid of the formulation, 2880 min
# [2] = system: gp46; assay: in vivo efficacy, rat DMNQ short-term liver damage model (liver gp46 mRNA)
# [3] = @ 0.75 mpk, 20:20 HEDC:S104 with 2% retinoid conjugate
Compound,in vitro (pHSC) % KD [1] [% @ 50 nM],other results
"CCCCCCCCCCCCCC(=O)NCCCC[C@@H](NC(=O)CCCCCCCCCCCCC)C(=O)NCCCOCCOCCOCCCNC(=O)CCOCCOCCOCCOCCOCCC(=O)NCCCOCCOCCOCCCNC(=O)[C@@H](CCCCNC(=O)CCCCCCCCCCCCC)NC(=O)CCCCCCCCCCCCC [Example 4Myr, N1,N19-bis((R)-15,22-dioxo-16-tetradecanamido-4,7,10-trioxa-14,21-diazapenta-triacontyl)-4,7,10,13,16-pentaoxanonadecane-1,19-diamide]",,in vitro (pHSC) EC50 or % KD [1]: 27% @ 50 nM
"CCCCCCCC/C=C\CCCCCCCC(=O)OCCCN(CCCOC(=O)CCCCCCC/C=C\CCCCCCCC)C(=O)C[N+](C)(C)CCO.[Br-] [Pr-HE-DODC, 2-(bis(3-(oleoyloxy)propyl)amino)-N-(2-hydroxyethyl)-N,N-dimethyl-2-oxoethanaminium bromide]",73,
"CCCCCCCCCCCCCC(=O)OCCN(CCOC(=O)CCCCCCCCCCCCC)C(=O)C[N+](C)(C)CCO.[Br-] [HEDC, 2-(bis(2-(tetradecanoyloxy)ethyl)amino)-N-(2-hydroxyethyl)-N,N-dimethyl-2-oxoethanaminium bromide]",68,"in vivo (rat DMNQ) % KD ([2]; @ 0.5 mpk, label = cationic lipid of the formulation): 52% @ 0.5 mpk"
"CCCCCCCCCCCCCC(=O)OCCN(CCOC(=O)CCCCCCCCCCCCC)C(=O)CC[N+](C)(C)CCO.[Br-] [HE-Et-DC, 3-(bis(2-(tetradecanoyloxy)ethyl)amino)-N-(2-hydroxyethyl)-N,N-dimethyl-3-oxopropan-1-aminium bromide]",70,
"CCCCCCCC/C=C\CCCCCCCC(=O)OCCN(CCOC(=O)CCCCCCC/C=C\CCCCCCCC)C(=O)CCC[N+](C)(C)CCO.[Br-] [HE-Pr-DODC, 4-(bis(2-(oleoyloxy)ethyl)amino)-N-(2-hydroxyethyl)-N,N-dimethyl-4-oxobutan-1-aminium bromide]",75,
"CCCCCCCCCCCCCC(=O)OCCN(CCOC(=O)CCCCCCCCCCCCC)C(=O)CCC[N+](C)(C)CCO.[Br-] [HE-Pr-DC, 4-(bis(2-(tetradecanoyloxy)ethyl)amino)-N-(2-hydroxyethyl)-N,N-dimethyl-4-oxobutan-1-aminium bromide]",47,
"N1,N19-bis((16S)-16-(3,7-dimethyl-9-(2,6,6-trimethylcyclohex-1-en-1-yl)nonanamido)-24,28-dimethyl-15,22-dioxo-30-(2,6,6-trimethylcyclohex-1-en-1-yl)-4,7,10-trioxa-14,21-diazatriacontyl)-4,7,10,13,16-pentaoxanonadecane-1,19-diamide [satDiVA]",,"in vitro (pHSC) EC50 or % KD [1]: 73% @ 50 nM; in vivo (rat DMNQ) % KD [2, 3]: 74% @ 0.75 mpk"
"CC1=C(/C=C/C(C)=C/C=C/C(C)=C/C(=O)NCCCC[C@H](NC(=O)/C=C(C)/C=C/C=C(C)/C=C/C2=C(C)CCCC2(C)C)C(=O)NCCCOCCOCCOCCCNC(=O)CCOCCOCCOCCOCCOCCC(=O)NCCCOCCOCCOCCCNC(=O)[C@H](CCCCNC(=O)/C=C(C)/C=C/C=C(C)/C=C/C2=C(C)CCCC2(C)C)NC(=O)/C=C(C)/C=C/C=C(C)/C=C/C2=C(C)CCCC2(C)C)C(C)(C)CCC1 [DiVA, N1,N19-bis((S,23E,25E,27E,29E)-16-((2E,4E,6E,8E)-3,7-dimethyl-9-(2,6,6-trimethylcyclohex-1-en-1-yl)nona-2,4,6,8-tetraenamido)-24,28-dimethyl-15,22-dioxo-30-(2,6,6-trimethylcyclohex-1-en-1-yl)-4,7,10-trioxa-14,21-diazatriaconta-23,25,27,29-tetraen-1-yl)-4,7,10,13,16-pentaoxanonadecane-1,19-diamide]",,"inhibition at 0.05 µM ([1]; Rattus norvegicus, read-out: in vitro (pHSC) EC50 or % KD): 74%; in vivo (rat DMNQ) % KD [2, 3]: 60% @ 0.75 mpk"
"CCCCCCCCCCCCCC(=O)OCCCN(CCCOC(=O)CCCCCCCCCCCCC)C(=O)C[N+](C)(C)CCO.[Br-] [Pr-HEDC, 2-(bis(3-(tetradecanoyloxy)propyl)amino)-N-(2-hydroxyethyl)-N,N-dimethyl-2-oxoethanaminium bromide]",75,
"N1,N19-bis((R)-1,8-dioxo-7-(4-((E)-2-(5,5,8,8-tetramethyl-5,6,7,8-tetrahydro-naphthalen-2-yl)prop-1-en-1-yl)benzamido)-1-(4-((E)-2-(5,5,8,8-tetramethyl-5,6,7,8-tetrahydronaphthalen-2-yl)prop-1-en-1-yl)phenyl)-13,16,19-trioxa-2,9-diazadocosan-22-yl)-4,7,10,13,16-pentaoxanonadecane-1,19-diamide [Example 4TTNPB]",,in vitro (pHSC) EC50 or % KD [1]: 34% @ 50 nM
"CCCCCCCC/C=C\CCCCCCCC(=O)OCCN(CCOC(=O)CCCCCCC/C=C\CCCCCCCC)C(=O)CC[N+](C)(C)CCO.[Br-] [HE-Et-DODC, 3-(bis(2-(oleoyloxy)ethyl)amino)-N-(2-hydroxyethyl)-N,N-dimethyl-3-oxopropan-1-aminium bromide]",71,
"CCCCCCCC/C=C\CCCCCCCC(=O)OCCN(CCOC(=O)CCCCCCC/C=C\CCCCCCCC)C(=O)C[N+](C)(CCO)CCO.[Br-] [HE2DODC, 2-(bis(2-(oleoyloxy)ethyl)amino)-N,N-bis(2-hydroxyethyl)-N-methyl-2-oxoethanaminium bromide]",78,
